According to PubChem BioAssay AID264 (DTP/NCI, 2004):
Values joined by “and” are separate entries in the source; they are usually repeats but may differ in a detail not shown here. Identical values can stand only once. Records with an inconclusive call do not appear.

Test system: nude mice, LX-1 lung xenograft intrarenal, tumor weight T/C
Experiment: NCI In Vivo Anticancer Drug Screen. Data for tumor model Human Lung LX-1 Xenograft (intrarenal inoculation) in NU/NU Swiss (nude) mice
Conditions: endpoint: mean tumor weight change, higher = larger tumour
Summary of the method: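 In vivo, transplantable tumor; compound vs vehicle arms; tumor size measured; value = T/C.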

[1] = dose: 0.5 mg/kg/injection, schedule: Q01DX010 (sc), vehicle: water
[2] = dose: 1.0 mg/kg/injection, schedule: Q01DX010 (sc), vehicle: water
[3] = dose: 600.0 mg/kg/injection, schedule: Q04DX003 (sc), vehicle: saline with Tween-80
[4] = dose: 1200.0 mg/kg/injection, schedule: Q04DX003 (sc), vehicle: saline with Tween-80
[5] = dose: 2400.0 mg/kg/injection, schedule: Q04DX003 (sc), vehicle: saline with Tween-80

CC[C@@]1(O)C[C@H](OC2CC(N(C)C)C(OC3CC(O)C(OC4CCC(=O)C(C)O4)C(C)O3)C(C)O2)c2c(cc3c(c2O)C(=O)c2c(O)cccc2C3=O)[C@H]1C(=O)OC (stereo partly specified)
T/C [1]: 105 % of control | T/C [2]: 69 % of control | T/C (dose: 1.66 mg/kg/injection, schedule: Q04DX003 (ip), vehicle: water): 24 % of control | T/C (dose: 2.0 mg/kg/injection, schedule: Q01DX010 (sc), vehicle: water): 83 % of control | T/C (dose: 3.33 mg/kg/injection, schedule: Q04DX003 (ip), vehicle: water): 22 % of control

c1ccc2sc(SSN3CC4CCC(CC4)C3)nc2c1
T/C (dose: 50.0 mg/kg/injection, schedule: Q01DX010 (sc), vehicle: saline with Tween-80): 81 % of control | T/C (dose: 100.0 mg/kg/injection, schedule: Q01DX010 (sc), vehicle: saline with Tween-80): 76 % of control | T/C (dose: 200.0 mg/kg/injection, schedule: Q01DX010 (sc), vehicle: saline with Tween-80): 48 % of control | T/C (dose: 400.0 mg/kg/injection, schedule: Q01DX010 (sc), vehicle: saline with Tween-80): 50 % of control

[O-][n+]1c(CN2CCCCC2)nc2cccc3c2c1-c1ccccc1-3
T/C (dose: 300.0 mg/kg/injection, schedule: Q04DX003 (sc), vehicle: saline with Tween-80): 82 % of control | T/C [3]: 68 % of control | T/C [4]: 77 % of control | T/C [5]: 109 % of control

CCC/C=C/C=C/C(=O)OC1/C(=C/C(=O)OC)CC2CC(C(C)O)OC(=O)CC(O)CC3CC(OC(C)=O)C(C)(C)C(O)(CC4C/C(=C/C(=O)OC)CC(/C=C/C(C)(C)C1(O)O2)O4)O3 (stereo unspecified)
T/C (dose: 0.25 mg/kg/injection, schedule: Q04DX003 (sc), vehicle: saline + alcohol): 112 % of control | T/C (dose: 0.5 mg/kg/injection, schedule: Q04DX003 (sc), vehicle: saline + alcohol): 96 % of control | T/C (dose: 1.0 mg/kg/injection, schedule: Q04DX003 (ip), vehicle: saline + alcohol): 96 % of control | T/C (dose: 1.0 mg/kg/injection, schedule: Q04DX003 (sc), vehicle: saline + alcohol): 59 % of control | T/C (dose: 2.0 mg/kg/injection, schedule: Q04DX003 (ip), vehicle: saline + alcohol): 119 % of control | T/C (dose: 2.0 mg/kg/injection, schedule: Q04DX003 (sc), vehicle: saline + alcohol): 27 % of control and 40 % of control | T/C (dose: 4.0 mg/kg/injection, schedule: Q04DX003 (ip), vehicle: saline + alcohol): 76 % of control | T/C (dose: 8.0 mg/kg/injection, schedule: Q04DX003 (ip), vehicle: saline + alcohol): 81 % of control | T/C (dose: 8.0 mg/kg/injection, schedule: Q04DX003 (sc), vehicle: saline + alcohol): 16 % of control | T/C (dose: 10.0 mg/kg/injection, schedule: Q04DX003 (ip), vehicle: saline + alcohol): 93 % of control

O=C1c2c(O)ccc(O)c2C(=O)c2c(NCCNCCO)ccc(NCCNCCO)c21
T/C (dose: 0.5 mg/kg/injection, schedule: Q01DX010 (sc), vehicle: acid diluted with saline): 57 % of control | T/C [1]: 47 % of control | T/C (dose: 1.0 mg/kg/injection, schedule: Q01DX010 (sc), vehicle: acid diluted with saline): 40 % of control | T/C [2]: 34 % of control | T/C (dose: 2.0 mg/kg/injection, schedule: Q01DX010 (sc), vehicle: acid diluted with saline): 52 % of control | T/C (dose: 5.0 mg/kg/injection, schedule: Q04DX003 (sc), vehicle: water): 53 % of control | T/C (dose: 10.0 mg/kg/injection, schedule: Q04DX003 (sc), vehicle: water): 26 % of control

COC1=C(OC)C(=O)C(SC/C=C(\C)CCCC(C)CCCC(C)CCCC(C)C)=CC1=O (stereo unspecified)
T/C [3]: 91 % of control | T/C [4]: 40 % of control | T/C [5]: 55 % of control

COc1ccc(-c2cc(C(=O)Nc3cc(C(F)(F)F)cc(C(F)(F)F)c3)c3ccccc3n2)cc1
T/C (dose: 150.0 mg/kg/injection, schedule: Q04DX003 (ip), vehicle: DMSO): 75 % of control | T/C (dose: 300.0 mg/kg/injection, schedule: Q04DX003 (ip), vehicle: DMSO): 104 % of control | T/C (dose: 600.0 mg/kg/injection, schedule: Q04DX003 (ip), vehicle: DMSO): 68 % of control
